Where two headings read alike, the source gives them in different places.
Assays:
Format in all cases: cell-based
[1] = biological target: T1, human SGLT5 (Homo sapiens, UniProt A0PJK1); test: Radioactive uptake assay (saturation kinetics) in HEK293T cells stably overexpressing human SGLT5-iso2; details: for hSGLT5 Vmax: transport of the labelled substrate, Fig. 2B
T1 construct: expressed in transfected cells
T1 sequence (A0PJK1 1-596): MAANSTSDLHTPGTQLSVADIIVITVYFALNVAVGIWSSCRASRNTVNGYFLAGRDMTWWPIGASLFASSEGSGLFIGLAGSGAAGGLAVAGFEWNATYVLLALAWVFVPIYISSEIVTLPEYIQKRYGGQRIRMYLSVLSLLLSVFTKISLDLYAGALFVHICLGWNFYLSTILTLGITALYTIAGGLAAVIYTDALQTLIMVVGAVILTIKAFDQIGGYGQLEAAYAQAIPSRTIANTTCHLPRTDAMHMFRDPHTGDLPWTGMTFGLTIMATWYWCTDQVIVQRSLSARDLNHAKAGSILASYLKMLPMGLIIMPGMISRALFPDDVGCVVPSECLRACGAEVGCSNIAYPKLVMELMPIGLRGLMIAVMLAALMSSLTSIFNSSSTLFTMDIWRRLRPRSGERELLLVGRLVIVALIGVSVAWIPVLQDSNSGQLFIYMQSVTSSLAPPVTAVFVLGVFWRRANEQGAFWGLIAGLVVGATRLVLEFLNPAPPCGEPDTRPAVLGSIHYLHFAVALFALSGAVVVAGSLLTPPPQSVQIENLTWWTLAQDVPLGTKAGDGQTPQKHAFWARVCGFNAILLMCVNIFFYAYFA
Text: This assay was used to study (1) the transport of 1,5-AG or mannose by the HEK293T model cell lines that stably overexpressed the various transporters or by the transiently transfected HEK293T cells using JetPEI® as a transfection agent prepared as described above and (2) the substrate specificity of each transporter.
(§1) For a typical transporter experiment we proceeded as follows. […] To minimize cell loss during the various washing steps in the radioactive uptake experiments, the wells where the cells were seeded were previously coated with poly- D-lysine, which improved their adhesion to the plastic surface of the wells. For this, each well of the 24-well plates was treated with 200 µl of a 0.01% poly-L-lysine solution for 10 min, washed 3 times with 1 ml of sterilized water and left to dry for 2 h. Only then could the 24-well plates be seeded with the appropriate cell lines and cultured overnight at 37 °C in 5% CO2.
On day two, the radioactive uptake assay could be performed. The cell culture media was removed by aspiration and cells were incubated for 20 min at 37 °C and 5% CO2 with a basal medium (10 mM HEPES, pH 7.4, 1 mM CaCl2, 1 mM MgCl2, 2 mM KCl) containing 140 mM choline chloride to deplete intracellular […] ions. This was subsequently replaced with the uptake medium (basal medium + 140 mM NaCl, 25 μM cytochalasin B, 1 mg/ml BSA) containing either radioactive U-[^14C]-mannose (15,000 cpm/well) or 2-[^3H]-1,5-AG (30,000 cpm/well) and respectively, non-radioactive mannose or 1,5-AG, at the required concentration in the experiment. […]
(§2) Once the uptake medium was added to the cells, the plates were incubated at 37 °C in 5% CO2 during the required time. […] In each experiment, the transport activities were calculated after subtracting a “blank” value, corresponding to the radioactivity in the appropriate control cells (HEK293T cells that were stably or transiently transfected with one of the parent plasmids pEF6/MycHisA, pEF6HisB, pUB82 or pUB83 with no inserted cDNA) that were analyzed in parallel.

[2] = biological target: T1, human SGLT5; test: Inhibition of 10 µM radiolabelled 1,5-AG transport in HEK293T cells overexpressing human SGLT5
Procedure: as §1
(§3) On day two, the radioactive uptake assay could be performed. The cell culture media was removed by aspiration and cells were incubated for 20 min at 37 °C and 5% CO2 with a basal medium (10 mM HEPES, pH 7.4, 1 mM CaCl2, 1 mM MgCl2, 2 mM KCl) containing 140 mM choline chloride to deplete intracellular […] ions. This was subsequently replaced with the uptake medium (basal medium + 140 mM NaCl, 25 μM cytochalasin B, 1 mg/ml BSA) containing either radioactive U-[^14C]-mannose (15,000 cpm/well) or 2-[^3H]-1,5-AG (30,000 cpm/well) and respectively, non-radioactive mannose or 1,5-AG, at the required concentration in the experiment. Importantly, when measuring the transport of mannose, the uptake media also contained 0.5 mM glucose. This resulted from the need to reduce the background transport of mannose in control HEK293T cells in order to optimize the transport assay for this sugar in our model cell lines. Consequently, after testing various inhibitors (Supplementary Fig. 1), 0.5 mM glucose + 25 µM cytochalasin B appeared as the best combination to decrease efficiently the endogenous transport of mannose in control cells without affecting the transport of mannose in model cell lines overexpressing SGLT4 and SGLT5. Therefore in the radioactive uptake assays for mannose, the uptake medium was: basal uptake medium + 140 mM NaCl, 25 μM cytochalasin B, 0.5 mM glucose and 1 mg/ml BSA to which we added U-[^12C + ^14C]-mannose as described above.
as §2
(§4) The transport experiments to study the specificity of SGLT4 or SGLT5, were performed in the presence of 10 µM U-[^14C + ^12C]-mannose (for SGLT4) or 2-[^3H + ^1H]-1,5-AG (for SGLT5) and increasing concentrations of various sugars tested. The transport experiments to study the inhibition of empagliflozin, dapagliflozin or remogliflozin, on the transport of 1,5-AG by SGLT5 or its variants were performed in the presence of 10 µM 2-[^3H + ^1H]-1,5-AG and increasing concentrations of the various gliflozins tested.

[3] = biological target: T2, human SGLT4 (Homo sapiens, UniProt Q2M3M2); test: Inhibition of 10 µM radiolabelled mannose transport in HEK293T cells overexpressing human SGLT4; details: substrate 10 μM mannose
T2 construct: expressed in transfected cells
T2 sequence (Q2M3M2 1-681): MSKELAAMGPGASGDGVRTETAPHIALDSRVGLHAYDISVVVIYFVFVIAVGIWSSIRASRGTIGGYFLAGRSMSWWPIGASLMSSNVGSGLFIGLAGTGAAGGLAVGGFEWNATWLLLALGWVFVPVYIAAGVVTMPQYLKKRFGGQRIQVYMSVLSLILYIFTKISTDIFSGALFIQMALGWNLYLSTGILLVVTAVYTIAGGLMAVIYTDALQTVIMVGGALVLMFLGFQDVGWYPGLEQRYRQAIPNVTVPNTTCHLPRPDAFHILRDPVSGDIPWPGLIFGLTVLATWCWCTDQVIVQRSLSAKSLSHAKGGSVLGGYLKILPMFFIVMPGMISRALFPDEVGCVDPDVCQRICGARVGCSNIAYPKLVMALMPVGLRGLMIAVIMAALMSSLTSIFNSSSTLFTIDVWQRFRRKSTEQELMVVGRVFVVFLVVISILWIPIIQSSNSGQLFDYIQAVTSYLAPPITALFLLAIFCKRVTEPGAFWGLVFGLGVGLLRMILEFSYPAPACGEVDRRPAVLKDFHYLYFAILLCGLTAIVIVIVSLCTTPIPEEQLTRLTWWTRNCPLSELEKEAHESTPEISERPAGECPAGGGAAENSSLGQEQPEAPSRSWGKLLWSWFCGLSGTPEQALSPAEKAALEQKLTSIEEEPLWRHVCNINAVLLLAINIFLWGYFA
Procedure: as §1, §3, §2, §4

[4] = substrate 10 μM 1,5-AG, unlabelled sugars, Fig. 3C, read-out: hSGLT5 IC50

SMILES	Vmax ([1]; hSGLT5 WT, Table 1 experiments)	hSGLT5 Vmax [1]	IC50 ([2]; 10 µM 2-[1H+3H]-1,5-AG, Supplementary Fig. 7, read-out: IC50 for 1,5-AG, SGLT5-WT)	preference of 1,5-AG over glucose, difference in Ki ([2]; SGLT5)	IC50 [2, 4]	hSGLT4 inhibition with 10 mM inhibitor ([3]; 10 mM inhibitor)	IC50 ([3]; Fig. 3C, read-out: hSGLT4 IC50)	IC50 ([2]; 10 µM 2-[1H+3H]-1,5-AG, Fig. 5C, read-out: IC50 for SGLT5-mediated 1,5-AG transport (gliflozins))
OC[C@H]1OC[C@H](O)[C@@H](O)[C@@H]1O [1,5-AG, 1,5-anhydroglucitol]	17.3 ± 0.3 pmol/min/10^5cells	14.1 ± 0.8 pmol/min/10^5 cells	162 µM	20 fold	167 µM	no inhibition	–	–
OC[C@H]1OC(O)[C@@H](O)[C@@H](O)[C@@H]1O (stereo partly shown) [Mannose, mannose]	–	44.7 ± 12.4 pmol/min/10^5 cells	–	–	380 µM	–	125 µM	–
OC[C@H]1O[C@@H](c2ccc(Cl)c(Cc3ccc(O[C@H]4CCOC4)cc3)c2)[C@H](O)[C@@H](O)[C@@H]1O [empagliflozin]	–	–	–	–	–	–	–	0.7 µM

From article PMC10439028, “SGLT5 is the renal transporter for 1,5-anhydroglucitol, a major player in two rare forms of neutropenia” (Cellular and Molecular Life Sciences: CMLS, 2023)
